Experimental data published in the supplement of paper PMC10307832.

Key:
Test in all cases: relative viability (nuclei count vs DMSO), 5 days (fraction); higher = more cells survive
H3255 = tested on: H3255
Method in brief: (§1)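 Lung cancer cell lines in 1536-well plates were dosed by pin tool the day after seeding, either with one drug alone or with a fixed anchor-drug dose plus five library-drug doses (not always all listed) in √10 steps. After 5 days, cells were fixed and their nuclei stained in one step (final 0.05% Triton X-100, 1% formaldehyde, 1 ug/ml Hoechst), then counted on 4× images. Relative viability is the nuclei count in treated wells divided by that in vehicle wells. Values are medians of duplicate plates.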

PC-14 = tested on: PC-14
Method in brief: as §1

LK-2 = tested on: LK-2
Method in brief: as §1

NCI-H460 = tested on: NCI-H460
Method in brief: as §1

LU99A = tested on: LU99A
Method in brief: as §1

NCI-H2347 = tested on: NCI-H2347
Method in brief: as §1

LC-2-ad = tested on: LC-2-ad
Method in brief: as §1

SW 900 = tested on: SW 900
Method in brief: as §1

COR-L23 = tested on: COR-L23
Method in brief: as §1

LCLC-103H = tested on: LCLC-103H
Method in brief: as §1

NCI-H1563 = tested on: NCI-H1563
Method in brief: as §1

NCI-H23 = details: first compound 0.01 µM
Method in brief: as §1

Structure (SMILES): O=c1cc(N2CCOCC2)oc2c(-c3cccc4c3sc3ccccc34)cccc12 + N=C(N)NC(=N)NCCc1ccccc1 [Phenformin] (partner 250 µM)
- relative viability (H3255; first compound 0.01 µM): 0.388
- relative viability (H3255; first compound 0.03162 µM): 0.334
- relative viability (H3255; first compound 0.1 µM): 0.328
- relative viability (H3255; first compound 0.3162 µM): 0.368
- relative viability (H3255; first compound 1 µM): 0.35
- relative viability (PC-14; first compound 0.01 µM): 0.292
- relative viability (PC-14; first compound 0.03162 µM): 0.758
- relative viability (PC-14; first compound 0.1 µM): 0.428
- relative viability (PC-14; first compound 0.3162 µM): 0.902
- relative viability (PC-14; first compound 1 µM): 0.361
- relative viability (LK-2; first compound 0.01 µM): 0.593
- relative viability (LK-2; first compound 0.03162 µM): 0.404
- relative viability (LK-2; first compound 0.1 µM): 0.573
- relative viability (LK-2; first compound 0.3162 µM): 0.38
- relative viability (LK-2; first compound 1 µM): 0.361
- relative viability (NCI-H460; first compound 0.01 µM): 0.285
- relative viability (NCI-H460; first compound 0.03162 µM): 0.522
- relative viability (NCI-H460; first compound 0.1 µM): 0.558
- relative viability (NCI-H460; first compound 0.3162 µM): 0.505
- relative viability (NCI-H460; first compound 1 µM): 0.544
- relative viability (LU99A; first compound 0.01 µM): 0.558
- relative viability (LU99A; first compound 0.03162 µM): 0.833
- relative viability (LU99A; first compound 0.1 µM): 0.925
- relative viability (LU99A; first compound 0.3162 µM): 0.833
- relative viability (LU99A; first compound 1 µM): 0.887
- relative viability (NCI-H2347; first compound 0.01 µM): 0.545
- relative viability (NCI-H2347; first compound 0.03162 µM): 0.318
- relative viability (NCI-H2347; first compound 0.1 µM): 0.376
- relative viability (NCI-H2347; first compound 0.3162 µM): 0.419
- relative viability (NCI-H2347; first compound 1 µM): 0.317
- relative viability (LC-2-ad; first compound 0.01 µM): 0.624
- relative viability (LC-2-ad; first compound 0.03162 µM): 0.592
- relative viability (LC-2-ad; first compound 0.1 µM): 0.614
- relative viability (LC-2-ad; first compound 0.3162 µM): 0.547
- relative viability (LC-2-ad; first compound 1 µM): 0.534
- relative viability (SW 900; first compound 0.01 µM): 0.291
- relative viability (SW 900; first compound 0.03162 µM): 0.635
- relative viability (SW 900; first compound 0.1 µM): 0.485
- relative viability (SW 900; first compound 0.3162 µM): 0.551
- relative viability (SW 900; first compound 1 µM): 0.56
- relative viability (COR-L23; first compound 0.01 µM): 0.439
- relative viability (COR-L23; first compound 0.03162 µM): 0.466
- relative viability (COR-L23; first compound 0.1 µM): 0.43
- relative viability (COR-L23; first compound 0.3162 µM): 0.411
- relative viability (COR-L23; first compound 1 µM): 0.449
- relative viability (LCLC-103H; first compound 0.01 µM): 0.317
- relative viability (LCLC-103H; first compound 0.03162 µM): 0.31
- relative viability (LCLC-103H; first compound 0.1 µM): 0.331
- relative viability (LCLC-103H; first compound 0.3162 µM): 0.377
- relative viability (LCLC-103H; first compound 1 µM): 0.341
- relative viability (NCI-H1563; first compound 0.01 µM): 0.644
- relative viability (NCI-H1563; first compound 0.03162 µM): 0.733
- relative viability (NCI-H1563; first compound 0.1 µM): 0.635
- relative viability (NCI-H1563; first compound 0.3162 µM): 0.671
- relative viability (NCI-H1563; first compound 1 µM): 0.612
- relative viability (NCI-H23): 0.83
